According to US20240148707A1, “MODULATION OF DRUG-DRUG INTERACTIONS OF VADADUSTAT” (Akebia Therapeutics, Inc., priority 2021, published 2024):
Where two headings read alike, the source gives them in different places.

What was measured:
[1] = Phase I drug-drug interaction study with cyclosporine (Part 1, Arm 1); assay type: in vivo, human; conditions: for AUC(0-inf) / AUC(0-t) / Cmax: both sexes, human, plasma, fasted
Description: A phase I, open-label, 2-part study was conducted in healthy male and female subjects to evaluate the potential for interaction of cyclosporine (Part 1, Arm 1), probenecid (Part 1, Arm 2), and rifampin (Part 2) with vadadustat.
Subjects were randomized in a 1:1 ratio to 1 of 2 dosing sequences (A:B or B:A) to receive vadadustat 300 mg alone and vadadustat 300 mg in combination with oral cyclosporine 500 mg in a crossover design. Study drugs were administered in the morning after at least a 10-hour overnight fast. Subjects remained fasted for at least 4 hours post-dose. • Treatment A: a single oral dose of vadadustat (300 mg) administered as 2×150 mg tablets. • Treatment B: a single oral dose of vadadustat (300 mg) administered as 2×150 mg tablets co-administered with a single oral dose of cyclosporine (500 mg) administered as 5×100 mg capsules.
On the morning of Day 1, subjects received the first treatment (A or B). Following a 7-day washout, subjects crossed over to Period 2 to receive the second treatment of the dosing sequence (A or B) on Day 8.
On each dosing day (Day 1 and Day 8) blood samples for PK analysis were collected up to 48 hours post-dose. Subjects were discharged from the clinical research unit (CRU) on the morning of Day 10, after the final 48-hour post-dose PK sample had been collected. A follow-up phone call was conducted 30 days±2 days after the final dose.

[2] = Phase I drug-drug interaction study with sevelamer carbonate; assay type: in vivo, human; conditions: for clearance: read-out: Clearance (ClB) (converted); for Vd: read-out: Volume of distribution (Vc); for Tmax: median (minimum, maximum)
Description: A phase I, open-label, fixed-sequence study was conducted in healthy adult subjects to assess the effect of sevelamer carbonate as phosphate binders on the pharmacokinetics of a single dose of vadadustat.
Pharmacokinetics. A predose PK blood sample was collected on Day 1. After each dose of vadadustat administered (Days 1, 3, 5, and 7), blood samples for PK analysis were collected at the following time points: predose and 0.5, 1, 1.5, 2, 3, 4, 6, 9, 12, 16, 24, and 48 hours after each dose of vadadustat. The 48-hour postdose sample was collected before vadadustat administration on Days 3, 5, and 7. The following parameters were calculated and analyzed: AUC0-∞, AUC0-last, Cmax, Tmax, Kel, CIB, Vc/F, and t1/2.
Subjects were dosed approximately at the same designated time on each dosing day, where applicable. Study drugs were administered with approximately 8 ounces (240 mL) of water at room temperature in a seated position. Subjects were instructed to drink the full 8 ounces of water, and not to chew or break the tablets/gelcaps.
A single oral dose of vadadustat 300 mg (2×150 mg tablets) was administered on Days 1, 3, 5, and 7. Phosphate binder that is sevelamer carbonate (1600 mg, 2×800 mg tablets) was administered on Days 3, 5, and 7.
The 9-day treatment period was conducted as follows: • Day 1: vadadustat administered immediately after consuming breakfast. • Day 2: wash-out (no investigational product administration). • Day 3: vadadustat administered concomitantly with the requisite phosphate binder immediately after consuming breakfast. • Day 4: wash-out (no investigational product administration). • Day 5: vadadustat administered in fasted condition and the phosphate binder administered 1 hour later (breakfast must be served within 2 minutes after phosphate binder administration and consumed immediately after it is served). • Day 6: wash-out (no investigational product administration). • Day 7: phosphate binder administered immediately after consuming breakfast; vadadustat administered 2 hours after the phosphate binder was administered. • Day 8: wash-out (no investigational product administration). • Day 9: subjects discharged from the Clinical Research Unit (CRU) after the 48-hour postdose PK blood sample has been collected.

[3] = concomitant administration of phosphate binder vs vadadustat alone, ANOVA
[4] = human, plasma, oral, 300 mg, vadadustat 300 mg alone, immediately after breakfast, mean ± SD
[5] = human, plasma, oral, vadadustat 300 mg 2 hours after sevelamer carbonate 1600 mg with breakfast, mean ± SD
[6] = human, plasma, oral, vadadustat 300 mg concomitantly with sevelamer carbonate 1600 mg, immediately after breakfast, mean ± SD
[7] = human, plasma, oral, vadadustat 300 mg fasting, 1 hour prior to sevelamer carbonate 1600 mg, mean ± SD
[8] = vadadustat 300 mg alone, immediately after breakfast, mean ± SD

## O=C(O)CNC(=O)c1ncc(-c2cccc(Cl)c2)cc1O [Compound 1, {[5-(3-chlorophenyl)-3-hydroxypyridine-2-carbonyl]amino}acetic acid]
[1]; vadadustat 300 mg + cyclosporine 500 mg, single oral doses, read-out: AUCinf, geometric LSM, Treatment V + C
  AUC(0-inf): 293 µg·h/mL
[1]; vadadustat 300 mg + cyclosporine 500 mg, single oral doses, read-out: AUClast, geometric LSM, Treatment V + C
  AUC(0-t): 292 µg·h/mL
[1]; vadadustat 300 mg + cyclosporine 500 mg, single oral doses, read-out: Cmax, geometric LSM, Treatment V + C
  Cmax: 37100 ng/mL
[1]; vadadustat 300 mg alone, single oral dose, read-out: AUCinf, geometric LSM, Treatment V
  AUC(0-inf): 251 µg·h/mL
[1]; vadadustat 300 mg alone, single oral dose, read-out: AUClast, geometric LSM, Treatment V
  AUC(0-t): 249 µg·h/mL
[1]; vadadustat 300 mg alone, single oral dose, read-out: Cmax, geometric LSM, Treatment V
  Cmax: 45400 ng/mL
[1]; during treatment with cyclosporine, healthy subjects
  tolerability: tolerated
[1]; vadadustat in combination with cyclosporine
  changes in the Cmax and AUC values: no clinically relevant changes
[2]; [3]
  reduction of vadadustat AUC0-last: about 37%
  reduction of vadadustat AUC0-∞: about 37%
  reduction of vadadustat Cmax: about 40%
[2]; [4]
  AUC(0-t): 185 ± 57.3 µg·h/mL
  clearance: 28.8 mL/min
  Vd: 11.5 ± 2.84 L
[2]; human, plasma, oral, 300 mg, vadadustat 300 mg alone, immediately after breakfast, mean ± SD, read-out: AUC0-∞
  AUC(0-inf): 190 ± 57.2 µg·h/mL
[2]; human, plasma, oral, 300 mg, vadadustat 300 mg alone, immediately after breakfast
  Tmax: 3.97 h
[2]; human, plasma, oral, concurrent vadadustat and sevelamer carbonate, read-out: geometric LS mean AUC0-∞
  AUC(0-inf): 114 µg·h/mL
[2]; [5]
  AUC(0-t): 151 ± 57.5 µg·h/mL
  clearance: 38.3 mL/min
  Vd: 16.4 ± 7.04 L
[2]; human, plasma, oral, vadadustat 300 mg 2 hours after sevelamer carbonate 1600 mg with breakfast, mean ± SD, read-out: AUC0-∞
  AUC(0-inf): 154 ± 57.8 µg·h/mL
[2]; human, plasma, oral, vadadustat 300 mg 2 hours after sevelamer carbonate 1600 mg with breakfast, mean ± SD, read-out: Elimination half-life (t1/2) (converted)
  half-life: 5.1 ± 0.97 h
[2]; human, plasma, oral, vadadustat 300 mg 2 hours after sevelamer carbonate 1600 mg with breakfast
  Tmax: 2.99 h
[2]; [6]
  AUC(0-t): 121 ± 50.4 µg·h/mL
  clearance: 48 mL/min
  Vd: 19.4 ± 10.1 L
[2]; human, plasma, oral, vadadustat 300 mg concomitantly with sevelamer carbonate 1600 mg, immediately after breakfast, mean ± SD, read-out: AUC0-∞
  AUC(0-inf): 124 ± 51 µg·h/mL
[2]; human, plasma, oral, vadadustat 300 mg concomitantly with sevelamer carbonate 1600 mg, immediately after breakfast, mean ± SD, read-out: Cmax
  Cmax: 16600 ± 5750 ng/mL
[2]; human, plasma, oral, vadadustat 300 mg concomitantly with sevelamer carbonate 1600 mg, immediately after breakfast
  Tmax: 3.49 h
[2]; [7]
  AUC(0-t): 152 ± 46.2 µg·h/mL
  clearance: 35.7 mL/min
  Vd: 13.6 ± 5.04 L
[2]; human, plasma, oral, vadadustat 300 mg fasting, 1 hour prior to sevelamer carbonate 1600 mg, mean ± SD, read-out: AUC0-∞
  AUC(0-inf): 156 ± 48.5 µg·h/mL
[2]; human, plasma, oral, vadadustat 300 mg fasting, 1 hour prior to sevelamer carbonate 1600 mg, mean ± SD, read-out: Cmax
  Cmax: 31300 ± 10600 ng/mL
[2]; human, plasma, oral, vadadustat 300 mg fasting, 1 hour prior to sevelamer carbonate 1600 mg
  Tmax: 1.49 h
[2]; [8]
  Cmax: 26700 ± 6610 ng/mL
  Elimination half-life (t1/2): 4.81 ± 1.15 h
[2]; vadadustat 300 mg concomitantly with sevelamer carbonate 1600 mg, immediately after breakfast, mean ± SD
  Elimination half-life (t1/2): 4.70 ± 0.90 h
[2]; vadadustat administered 1 hour prior to sevelamer carbonate
  changes in vadadustat exposure: within the prespecified no-effect boundaries of 80% to 125%
[2]; vadadustat administered 2 hours after sevelamer carbonate
  changes in vadadustat exposure: within the prespecified no-effect boundaries of 80% to 125%
